Assay [1] has as its system MDCK (Kidney, Canine) strain NBL-2 cells. Nature of the assay: Trans-Epithelial Permeability (TEP) Assay, intracellular leakage of sodium fluorescein. It is filed as cell-based. Conditions: for anti-irritating activity, comparison between esters: referring to Table 4, 5% ester; for anti-irritating activity: 3% ester in shampoo base, Table 7. From the text:
The test methodology for measuring the irritation potential of alkoxylated esters is Trans-Epithelial Permeability (TEP) Assay. The TEP Assay measures intracellular leakage of a suitable marker reagent, such as sodium fluorescein, through cells that were exposed to irritant-containing compositions. Smaller leakage indicates lower degree of cell damage. If the cells are exposed to an irritant-containing composition with and without an anti-irritant, the magnitude of reduction in the intracellular leakage measures the anti-irritating ability of the anti-irritant. For additional discussion of the TEP Assay, see Tchao, R., Trans-Epithelial Permeability of Fluorescein In Vitro As An Assay To Determine Eye Irritants, Progress in In Vitro Toxicology, A M Goldberg ed., 6:271–283 (1988); Drewitt-Barlow, B., McPherson, J., Broyd, J. and Williamson, 2000. No Tears for Baby. Global Cosmetic Industry, (October, 2000): 16–20; Burke, J. and Joseph, L. B., 2000, In Vitro Analysis of the Irritation Mitigating Properties of PEG-150 Pentaerythrityl Tetrastearate, Society of Cosmetic Chemists, 2000 Technology Showcase, NY, N.Y., all of which are incorporated by reference herein.
The ingredients were dissolved in distilled water and pH was adjusted to 6.8 to 7.2. Sodium laurel ether sulfate (triethoxylated) is a known irritant. The irritation potentials of the compositions I, II, III and IV were measured using the TEP assay as follows.
MDCK (Kidney, Canine) strain NBL-2 purchased from American Type Culture Collection (CCL 34) were cultured under standard conditions. Three days prior to experimentation the cells were subcultured onto Corning 6.5 mm Transwell porous cell culture inserts at 1×10^5 cells per insert. Cells are grown to confluence in 3 days. The inserts were washed 5 times with phosphate buffered saline (PBS) immediately before testing. All reagents were made prior to experimentation, with the exception of the final dilutions with a saline solution, which were prepared on the day of the experiment.
The compositions I, II, III, and IV were diluted to 1:50 and 1:100 with Hanks Buffered Saline Solution (HBSS). For example, to prepare a 1:50 dilution of the test composition I, 1 part of the test composition I was mixed with 49 parts of HBSS. The diluted samples were placed on the ventral side of the insert (in duplicate) in direct contact with the cells for 15 minutes. Two inserts with HBSS were used as the negative control and inserts without cells were used as references of 100% leakage. After application of the test article, the inserts were washed with large amounts of PBS.
Sodium fluorescein was added directly to the cell monolayer and 1 ml of HBSS was placed in the well below. After 30 minutes of incubation at room temperature triplicate 200 μl samples were removed from the well and the optical density (OD) of the well fluid was determined. The experimental OD was then compared to the OD of 100% leakage reference (filter without cells), and provided a measure of irritation potential of the tested compositions.
The reductions in the irritation potential were calculated as the percentage of the absolute reduction relative to the control formulation (control is taken as 100%, and the percentages of reduction are calculated as 100% minus (observed leakage)/(observed leakage of control)×100%).

For assay [2], the system named is Epiocular™ Tissue Model (OCL-200). Description: Epiocular Tissue Model (OCL-200) cell survival, MTT readout. Format: cell-based. Conditions: 5% ester added to 10% SLS in PBS. The protocol: The following example illustrates the discovery of the anti-irritation activity of certain alkoxylated esters. A test composition A and a control composition B were prepared. The test composition A contained 5% of Di-PPG-3-PEG-4 Myristyl Ether Adipate, an alkoxylated (tripropoxy-tetraethoxy) diester of tripropoxy-tetraethoxy myristyl alcohol and adipic acid, and 10% of sodium laurel sulfate (SLS), a known irritant, in Phosphate Buffered Saline (PBS) at pH 6.8–7.2. The control composition B contained 10% SLS in PBS at the same pH without the alkoxylated ester. A separate solution of PBS (without SLS and the ester) was used as a negative control solution. The testing was carried out on Epiocular™, Tissue Model (OCL-200), from MatTek Corporation. Epiocular™ inserts were equilibrated overnight in assay media. Test composition A and B, and the negative control solution were then separately placed in direct contact with the cells. For each test substance, the progress of cell death was measured at 1, 5, and 10 minutes. The negative control inserts were exposed to phosphate buffered saline (PBS) for 10 minutes. The inserts were washed with PBS, equilibrated in Eagle's Minimal Essential Medium (EMEM) prior to incubation in MTT (3-[4,5-Dimethylthiazol-2-yl]-2,5-diphenyltetrazolium bromide), and extracted in isopropyl alcohol overnight. […]

With “Di-PPG-2-PEG-10 Steareth Ether Adipate [Di-PPG-2-PEG-10 Steareth Adipate]”, the “anti-irritating activity, comparison between esters” value in assay [1] is “greater anti-irritating activity than Di-PPG-2-PEG-10 Myristyl Adipate”.

Consider Di-PPG-2-PEG-10 Myristyl Adipate, for which, in assay [1], the “anti-irritating activity” value is “show anti-irritating activity” and the “anti-irritating activity, comparison between esters” value was “greater anti-irritating activity than Di-PPG-2-PEG-10 Lauryl Adipate”.

Regarding Di-PPG-3-PEG-4 Cetyl Ether Adipate, in assay [1], the “anti-irritating activity” value is “show anti-irritating activity, with the magnitude of activity being substantially greater”.

As for Di-PPG-3-PEG-4 Myristyl Ether Adipate, the “effect on cell death” value in assay [2] is recorded as “substantially reduces cell death”. Moreover, in assay [1] (5% ester in J&J Baby Shampoo, Table 9), the “reduction in the irritation potential of the shampoo” value is recorded as “dramatic reduction in the irritation potential”.

For the origin of these results see patent US7091243B2, “Anti-irritants” (Croda, Inc., priority 2001, dated 2006).
